Source: ChEMBL document CHEMBL3507680, “University of Dundee, Gates Library screen for HepG2 cell viability”

Experiment: Human HepG2 cell viability assay in 384 well format
Assay type: toxicity, cell-based
Set-up: dose 125 nL, time 70.5 hour; concentration not given beside the values
Details: HepG2 cells, read-out: Inhibition

Compound	cytotoxicity at 70.5 h
NC(=O)COc1ccc(C2NC(=O)CN2Cc2ccc(Br)cc2)cc1 (stereo not given)	-14.8%
COc1cccnc1NC(=O)c1ccc(COCC(F)(F)F)cc1	-8.83%
N#Cc1ccc(CCC(=O)N2CCC(CN3CCOCC3)CC2)cc1	23.1%
Cc1cc(C2NC(=O)CN2Cc2ccc(Br)cc2)cc(C)c1O (stereo not given)	0.666%
Cc1n[nH]c(NC(=O)c2ccc(COCC(F)(F)F)cc2)c1C	-10.3%
COc1ccc(CNC2CCc3ncnn3C2)cc1OCCCC#N (stereo not given)	-9.41%
COc1ccc(CNC2CCC(O)CC2)cc1OCCCC#N (stereo not given)	-5.82%
CNC(=O)CS(=O)(=O)NC1CCC(C)CC1 (stereo not given)	-15.8%
CC(Oc1cc(Cl)cc(Cl)c1)C(=O)NCCS(N)(=O)=O (stereo not given)	-4%
N#CCCN(C(=O)CCc1cccnc1)c1ccc2c(c1)OCCO2	-11.1%
Cc1noc(C)c1CNC(=O)Nc1ccc(N2CCOC(C)C2)cc1 (stereo not given)	-13.8%
Cc1nc(CCCNC(=O)c2c(F)cc(F)cc2F)n[nH]1	-7.17%
Cc1ccc(C(NC(=O)C2CC2)c2cccc(S(C)(=O)=O)c2)cc1 (stereo not given)	-4.47%
Cc1noc(C)c1CNC(=O)Nc1ccc(N2CCOC2=O)cc1	-17.5%
Cc1cc(C(=O)NC(C)CC(=O)c2cccs2)n(C)n1 (stereo not given)	-12.7%
Cc1c(C(=O)NC2CCCOc3cc(Cl)ccc32)cnn1C (stereo not given)	-15.2%
Cc1nc(C)c(S(=O)(=O)NC(=O)c2ccsc2)s1	-7%
COc1ccc(CNC2CCc3ncnn3C2)cc1OCC1CC1 (stereo not given)	-14.4%
CC(C)CC(NCc1cccs1)c1ccccn1 (stereo not given)	-13.2%
CCC(=O)N(c1ccc(C(=O)OC)cc1C)C(C)C	-3.07%

Compound	cytotoxicity at 70.5 h
COc1ccc(NC(=O)Cc2c(C)nn(C)c2C)cc1F	7.37%
CC(C)CNC(=O)Nc1cccc(OCC#N)c1	-7.35%
CCC(C)NC(=O)Nc1cccc(OCC#N)c1 (stereo not given)	-12.4%
CCC(C)NC(=O)Nc1cccc(OCCCC#N)c1 (stereo not given)	-8.47%
CC(C)c1nc(CC(=O)Nc2cnccc2O)cs1	-3.73%
CC(C)(C)c1nc(CC(=O)Nc2cnccc2O)cs1	-2.57%
O=C(Nc1ccccn1)c1ccc(F)c(S(=O)(=O)NC2CC2)c1	-16.8%
CC(C)N1CCC(NC(=O)c2cn(-c3ccc(F)cc3)nn2)C1 (stereo not given)	-16.5%
O=C(CCc1ccsc1)NCC1CCN(C2CC2)C1 (stereo not given)	-7.4%
COc1ccc(Br)c(NC(=O)NCc2cnn(C)c2)c1	-13.3%
CCc1cc(NCCCNS(C)(=O)=O)nc(-c2ccccn2)n1	-7.43%
O=C(NC1CCCN(Cc2c(F)cccc2F)C1)c1cc[nH]n1 (stereo not given)	-18%
COC(=O)c1ccc(N(C(=O)c2ccncc2)C(C)C)c(C)c1	-17.2%
COc1ccc(C)nc1NC(=O)CCc1c(C)nn(C)c1C	6.42%
O=C(NCc1nncn1C1CC1)c1ccccc1Oc1cccnc1	-7.51%
COc1ncc(NCc2ccc(Cl)c(Cl)c2)cc1C(N)=O	-5.01%
Cc1ccc(C(N)=O)cc1NCCOc1cccc(C#N)c1	-4.01%
Cc1ccc(NS(=O)(=O)c2c[nH]c3ncccc23)nc1	-2%
Cc1cc(NS(=O)(=O)c2c[nH]c3ncccc23)no1	0.354%
Clc1cnccc1N1CCC(OC2CCOCC2)CC1	-1.59%

Compound	cytotoxicity at 70.5 h
CCCN(C1CCc2ccccc2C1)S(C)(=O)=O (stereo not given)	-2.87%
O=C(N1CCOCC1)N1CCN(c2ccncc2Cl)CC1	1.32%
Cc1cc(C)n(-c2ccc(N3CCCSCC3)nc2)n1	-0.674%
Cc1cc(C)n(-c2ccc(N3CCC4(CC3)OCCO4)nc2)n1	3.59%
Clc1cnccc1N1CCCC2(CCCOC2)C1 (stereo not given)	1.82%
CC(=O)NCCCNCc1ccc(Cl)c2cccnc12	0.472%
Cc1c(NCCCOc2cccc(C#N)c2)cccc1C(N)=O	6.97%
CCCN(CCS(C)(=O)=O)C1CCc2ccccc2C1 (stereo not given)	-0.462%
OCC(CO)Nc1cccc(C(F)(F)F)n1	1.04%
CCN(CC1CCCO1)C(=O)CSCC(=O)Nc1ccc(C)cc1 (stereo not given)	-1.48%
CCN(CC1CCOC1)C(=O)CSCC(=O)Nc1ccc(C)cc1 (stereo not given)	-2.49%
CCS(=O)(=O)NCCNCc1ccc(Cl)c2cccnc12	-0.568%
CC(C)c1ncc2c(n1)CN(Cc1cccc3c1OCCO3)CC2	0.0459%
COc1ccc(CCNC2CCCN(c3ccc(C)nn3)C2)cc1 (stereo not given)	-7.85%
CCOC(C)c1nc(CN2CCC(C3OCCO3)CC2)cs1 (stereo not given)	9.96%
CC(C)CC(CNC(=O)c1cccnc1Oc1cccnc1)N(C)C (stereo not given)	8.64%
Cc1nc(C)n(CC2CCCN(CCCS(=O)(=O)N(C)C)C2)n1 (stereo not given)	-0.887%
O=C(NCc1ccc(CN2CCCCC2)cc1)Nc1cccnc1	-1.13%
Cc1ccc(-c2noc(CN3CCC(c4ccn[nH]4)CC3)n2)cc1	0.504%
Cc1cc(Br)oc1C(=O)N1CCC(N(C)C)CC1	33.8%
